From publication PMC3914206

Columns and labels:
Format in all cases: binding
Parameters in all cases: KINOMEscan: ABL1(F317L)-phosphorylated / KINOMEscan: ABL1(H396P)-nonphosphorylated / KINOMEscan: ABL1(H396P)-phosphorylated / KINOMEscan: ABL1(M351T)-phosphorylated / KINOMEscan: ABL1(T315I)-phosphorylated / KINOMEscan: ABL1-nonphosphorylated / KINOMEscan: ABL1-phosphorylated / KINOMEscan: ACVR2A / KINOMEscan: ACVR2B / KINOMEscan: ADCK3 / KINOMEscan: ADCK4 / KINOMEscan: AKT1 / KINOMEscan: AKT3 / KINOMEscan: ALK / KINOMEscan: ARK5 / KINOMEscan: AURKA / KINOMEscan: AURKC / KINOMEscan: BIKE / KINOMEscan: BMPR1A / KINOMEscan: BMPR1B / KINOMEscan: BMX / KINOMEscan: BRK / KINOMEscan: BRSK1 / KINOMEscan: BRSK2 / KINOMEscan: CAMK1 / KINOMEscan: CAMK1D / KINOMEscan: CAMK1G / KINOMEscan: CAMK2A / KINOMEscan: CAMK2B / KINOMEscan: AAK1 / KINOMEscan: CAMK2D / KINOMEscan: CAMK2G / KINOMEscan: ABL1(F317I)-nonphosphorylated / KINOMEscan: ABL1(F317I)-phosphorylated / KINOMEscan: ABL1(F317L)-nonphosphorylated: unit: % Ctrl
Conditions in all cases: Compound Concentration 10 µM
panel of 442 kinases [1] = target: T1, panel of 442 kinases (Homo sapiens, UniProt P49760)
T1 construct: purchased KINOMEscan
Text: (§1) We assessed the selectivity of members of this scaffold using the KINOMEscan methodology across a near comprehensive panel of 442 kinases [[18,27]].

panel of 442 kinases [2] = target: T2, panel of 442 kinases (Homo sapiens, UniProt Q13546)
T2 construct: purchased KINOMEscan
T2 sequence (Q13546 1-671): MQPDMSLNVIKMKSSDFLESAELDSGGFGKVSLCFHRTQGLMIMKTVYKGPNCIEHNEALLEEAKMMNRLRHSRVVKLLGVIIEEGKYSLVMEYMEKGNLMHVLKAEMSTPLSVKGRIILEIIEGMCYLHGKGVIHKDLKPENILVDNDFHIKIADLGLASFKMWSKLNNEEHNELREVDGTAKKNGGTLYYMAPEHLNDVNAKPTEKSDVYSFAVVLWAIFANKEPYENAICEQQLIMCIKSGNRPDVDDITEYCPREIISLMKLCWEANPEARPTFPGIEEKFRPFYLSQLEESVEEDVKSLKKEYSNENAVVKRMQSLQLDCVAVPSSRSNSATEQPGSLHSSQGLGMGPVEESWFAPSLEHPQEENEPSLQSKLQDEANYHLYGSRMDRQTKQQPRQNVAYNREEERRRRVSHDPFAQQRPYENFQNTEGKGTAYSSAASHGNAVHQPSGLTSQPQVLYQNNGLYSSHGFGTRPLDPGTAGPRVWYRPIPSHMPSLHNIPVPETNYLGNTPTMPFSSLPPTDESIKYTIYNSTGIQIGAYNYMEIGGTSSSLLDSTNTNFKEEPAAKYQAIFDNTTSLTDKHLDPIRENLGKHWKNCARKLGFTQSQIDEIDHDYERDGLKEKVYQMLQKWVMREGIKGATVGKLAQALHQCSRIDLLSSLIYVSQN
Text: as §1

panel of 442 kinases [3] = target: T3, panel of 442 kinases (Homo sapiens, UniProt P00519, F317I)
T3 construct: purchased KINOMEscan
Text: as §1

T3 sequence (P00519 whole entry F317I): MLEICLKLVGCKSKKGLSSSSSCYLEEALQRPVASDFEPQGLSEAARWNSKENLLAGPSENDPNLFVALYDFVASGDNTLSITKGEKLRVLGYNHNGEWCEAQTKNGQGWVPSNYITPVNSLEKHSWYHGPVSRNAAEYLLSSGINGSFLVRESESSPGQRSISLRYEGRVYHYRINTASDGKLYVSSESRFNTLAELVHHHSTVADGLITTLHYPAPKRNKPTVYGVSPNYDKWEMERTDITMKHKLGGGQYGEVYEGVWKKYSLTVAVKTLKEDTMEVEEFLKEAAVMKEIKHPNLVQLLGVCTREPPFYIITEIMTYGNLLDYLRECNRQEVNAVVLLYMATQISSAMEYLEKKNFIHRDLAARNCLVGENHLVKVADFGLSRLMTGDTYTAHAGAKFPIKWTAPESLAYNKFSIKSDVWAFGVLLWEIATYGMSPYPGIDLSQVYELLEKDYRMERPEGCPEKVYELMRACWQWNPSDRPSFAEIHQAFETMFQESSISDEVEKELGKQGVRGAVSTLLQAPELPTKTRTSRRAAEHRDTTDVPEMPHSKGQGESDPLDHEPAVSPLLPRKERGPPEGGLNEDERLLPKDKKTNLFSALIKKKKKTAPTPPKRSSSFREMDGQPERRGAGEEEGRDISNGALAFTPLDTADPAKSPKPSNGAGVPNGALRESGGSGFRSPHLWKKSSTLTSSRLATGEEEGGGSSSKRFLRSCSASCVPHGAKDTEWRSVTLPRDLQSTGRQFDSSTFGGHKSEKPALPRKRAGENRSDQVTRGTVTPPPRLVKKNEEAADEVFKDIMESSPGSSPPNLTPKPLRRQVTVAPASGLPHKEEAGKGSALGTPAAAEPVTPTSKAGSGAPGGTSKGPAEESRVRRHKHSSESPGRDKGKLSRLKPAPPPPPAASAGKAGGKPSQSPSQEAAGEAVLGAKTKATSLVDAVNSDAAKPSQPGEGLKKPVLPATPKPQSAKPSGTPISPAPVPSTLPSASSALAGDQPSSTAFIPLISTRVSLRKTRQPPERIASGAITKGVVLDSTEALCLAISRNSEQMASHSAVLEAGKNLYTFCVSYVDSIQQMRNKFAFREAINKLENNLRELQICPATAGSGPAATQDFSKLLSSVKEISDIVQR
T1 sequence (P49760 whole entry): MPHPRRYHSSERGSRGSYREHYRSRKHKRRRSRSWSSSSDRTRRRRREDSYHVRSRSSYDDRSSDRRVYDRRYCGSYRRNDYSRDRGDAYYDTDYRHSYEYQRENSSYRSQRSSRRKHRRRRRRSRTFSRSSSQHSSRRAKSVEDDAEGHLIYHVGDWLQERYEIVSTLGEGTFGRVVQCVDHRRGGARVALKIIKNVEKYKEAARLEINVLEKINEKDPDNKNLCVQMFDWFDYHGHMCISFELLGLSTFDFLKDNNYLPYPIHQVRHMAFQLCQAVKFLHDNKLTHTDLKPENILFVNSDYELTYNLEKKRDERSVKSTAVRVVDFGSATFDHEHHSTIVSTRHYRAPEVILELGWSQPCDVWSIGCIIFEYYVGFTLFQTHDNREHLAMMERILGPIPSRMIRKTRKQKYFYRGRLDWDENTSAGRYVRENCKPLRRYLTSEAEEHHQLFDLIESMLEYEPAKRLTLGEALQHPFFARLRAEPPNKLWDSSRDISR

Row | SMILES | KINOMEscan: CLK2 (panel of 442 kinases [1]) | KINOMEscan: RIPK1 (panel of 442 kinases [2]) | KINOMEscan: ABL1(F317I)-nonphosphorylated (panel of 442 kinases [3]) | KINOMEscan: ABL1(F317I)-phosphorylated (panel of 442 kinases [3])
1 | COc1cc(C(=O)N2CCC(N3CCN(C)CC3)CC2)ccc1Nc1ncc2c(n1)N(C1CCCC1)c1ccccc1C(=O)N2C [Compound 25, 11-cyclopentyl-2-((2-methoxy-4-(4-(4-methylpiperazin-1-yl)piperidine-1-carbonyl)phenyl)amino)-5-methyl-5H-benzo[e]pyrimido[5,4-b][1,4]diazepin-6(11H)-one] | 79 | 100 | 26 | 29
2 | COc1cc(C(=O)N2CCC(N3CCN(C)CC3)CC2)ccc1Nc1ncc2c(n1)N1CCc3cccc(c31)C(=O)N2C [Compound 24] | 25 | 76 | 17 | 24
3 | COc1cc(C(=O)N2CCC(N3CCN(C)CC3)CC2)ccc1Nc1ncc2c(n1)N(C)c1ccccc1C(=O)N2C [15 (LRRK2-IN-1)] | 72 | 99 | 15 | 17
4 | CCOc1cc(C(=O)N2CCC(N3CCN(C)CC3)CC2)ccc1Nc1ncc2c(n1)N(C1CCCC1)c1ccccc1C(=O)N2C [Compound 26] | 86 | 100 | 51 | 64
